Measurements: article PMC6201195, “The Xylulose 5-Phosphate/Phosphate Translocator Supports Triose Phosphate, but Not Phosphoenolpyruvate Transport Across the Inner Envelope Membrane of Plastids in Arabidopsis thaliana Mutant Plants” (Frontiers in Plant Science, 2018)

T1: XPT (xylulose 5-phosphate/phosphate translocator) (Arabidopsis thaliana, UniProt Q9LF61)
T1 construct: full-length XPT cDNA, His-tag (pYES-DEST52), expressed in Saccharomyces cerevisiae InvSC; yeast membranes reconstituted into proteoliposomes, tag kept
T1 sequence (Q9LF61 1-417 limits assumed): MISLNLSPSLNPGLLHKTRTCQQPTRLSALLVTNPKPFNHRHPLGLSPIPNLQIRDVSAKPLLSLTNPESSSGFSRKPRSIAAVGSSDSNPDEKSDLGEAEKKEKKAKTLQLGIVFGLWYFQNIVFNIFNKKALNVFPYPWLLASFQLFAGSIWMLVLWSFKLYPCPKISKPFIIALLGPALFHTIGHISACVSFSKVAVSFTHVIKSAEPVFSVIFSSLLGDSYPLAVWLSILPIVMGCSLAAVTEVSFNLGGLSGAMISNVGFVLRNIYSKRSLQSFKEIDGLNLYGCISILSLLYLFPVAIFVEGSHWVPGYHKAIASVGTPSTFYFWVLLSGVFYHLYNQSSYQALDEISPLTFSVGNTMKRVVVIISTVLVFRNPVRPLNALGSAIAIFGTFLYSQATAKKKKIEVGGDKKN


Columns and labels:
[1] = molecular target: T1, XPT (xylulose 5-phosphate/phosphate translocator); test: inhibition of homologous […]/[…] exchange in proteoliposomes with reconstituted yeast membranes; assay type: biochemical; details: external pH 7.0; 0.14 mM 32Pi; hyperbolic fit; alternative transport substrate
[2] = substrate: O=P(O)(O)O; test: cells, lysate or membranes; details: external pH 7.0, internal pH 7.8; counter-exchange; labelled compound

| Molecule | Ki(app) [1] [mM] | Km [2] [µM] |
| --- | --- | --- |
| C=C(OP(=O)(O)O)C(=O)O [PEP] | 3.76 ± 0.39 | – |
| XPT (xylulose 5-phosphate/phosphate translocator) (Arabidopsis thaliana) (protein) MISLNLSPSLNPGLLHKTRTCQQPTRLSALLVTNPKPFNHRHPLGLSPIPNLQIRDVSAKPLLSLTNPESSSGFSRKPRSIAAVGSSDSNPDEKSDLGEAEKKEKKAKTLQLGIVFGLWYFQNIVFNIFNKKALNVFPYPWLLASFQLFAGSIWMLVLWSFKLYPCPKISKPFIIALLGPALFHTIGHISACVSFSKVAVSFTHVIKSAEPVFSVIFSSLLGDSYPLAVWLSILPIVMGCSLAAVTEVSFNLGGLSGAMISNVGFVLRNIYSKRSLQSFKEIDGLNLYGCISILSLLYLFPVAIFVEGSHWVPGYHKAIASVGTPSTFYFWVLLSGVFYHLYNQSSYQALDEISPLTFSVGNTMKRVVVIISTVLVFRNPVRPLNALGSAIAIFGTFLYSQATAKKKKIEVGGDKKN | – | 400 ± 70 |
